Test results taken from patent publication US9499550B2 (BRISTOL-MYERS SQUIBB COMPANY, priority 2012, dated 2016).
Like-named read-outs stand apart in the source and are kept apart here.

What was measured:
[1] = system: HCV genotype 1a (H77 strain) replicon in HUH-7 cells; assay: HCV replicon luciferase reporter assay, genotype 1a; format: cell-based; details: 3 days incubation, read-out: LE_1a (EC50, range)
Procedure, shortened: (§1)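 Replicon inhibition for both genotypes was measured as Renilla luciferase signal (EnduRen, 7.5 μM final, 2 h) after 3-day, 37° C exposure of replicon-bearing HUH-7 cells in 4% FCS DMEM, 0.5% DMSO. The 1b construct carries S1179I; the 1a H77 construct carries P1496L and S2204I. Twenty-point, 3-fold dilutions were fitted four-parametrically for EC50, and CC50 was taken from multiplexed Cell Titer-Blue.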

[2] = system: HCV genotype 1b (Con1) replicon in HUH-7 cells; assay: HCV replicon luciferase reporter assay, genotype 1b; format: cell-based; details: 3 days incubation, read-out: LE_1b (EC50, range)
Procedure, shortened: as §1

[3] = Hepatitis C virus, Huh-7, 72 h, HCV genotype 1a replicon luciferase
[4] = Hepatitis C virus, Huh-7, 72 h, HCV genotype 1b replicon luciferase
[5] = Hepatitis C virus, Huh-7, 72 h, HCV genotype 1a replicon luciferase assay, range class
[6] = Hepatitis C virus, Huh-7, 72 h, HCV genotype 1b replicon luciferase assay, range class

SMILES | EC50 [1, 3] | EC50 [2, 4] | also measured
CCOc1nnc(O[C@@H]2C[C@H]3C(=O)N[C@]4(C(=O)NS(=O)(=O)C5CC5)C[C@H]4/C=C\CC[C@@H](C)C[C@@H](C)[C@H](NC(=O)OC(C)(C)C(F)(F)F)C(=O)N3C2)c2ccccc12 [Compound 5037, 1,1,1-trifluoro-2-methylpropan-2-yl((2R,6S,7R,9R,13aS,14aR,16aS,Z)-14a-((cyclopropylsulfonyl)carbamoyl)-2-((4-ethoxyphthalazin-1-yl)oxy)-7,9-dimethyl-5,16-dioxo-1,2,3,5,6,7,8,9,10,11,13a,14,14a,15,16,16a-hexadecahydrocyclopropa[e]pyrrolo[1,2-a][1,4]diazacyclopentadecin-6-yl)carbamate] | < 5.46 nM | < 5.46 nM | 
CC[C@@H]1C[C@@H](C)CC/C=C\[C@@H]2C[C@@]2(C(=O)NS(=O)(=O)C2(C)CC2)NC(=O)[C@@H]2C[C@@H](Oc3nnc(OC)c4ccccc34)CN2C(=O)[C@H]1NC(=O)OC(C)(C)C [Compound 5025, tert-butyl ((2R,6S,7R,9S,13aS,14aR,16aS,Z)-7-ethyl-2-((4-methoxyphthalazin-1-yl)oxy)-9-methyl-14a-(((1-methylcyclopropyl)sulfonyl)carbamoyl)-5,16-dioxo-1,2,3,5,6,7,8,9,10,11,13a,14,14a,15,16,16a-hexadecahydrocyclopropa[e]pyrrolo[1,2-a][1,4]diazacyclopentadecin-6-yl)carbamate] | 4.82 to 103 nM | < 5.46 nM | 
COc1ccc2c(O[C@@H]3C[C@H]4C(=O)N[C@]5(C(=O)NS(=O)(=O)C6(F)CC6)C[C@H]5/C=C\CC[C@@H](C)C[C@@H](C)[C@H](NC(=O)OCC(C)(C)C)C(=O)N4C3)nccc2c1 [Compound 4022] | < 5.46 nM | < 5.46 nM | 
COc1cnc(O[C@@H]2C[C@H]3C(=O)N[C@]4(C(=O)NS(=O)(=O)C5(C)CC5)C[C@H]4/C=C\CC[C@@H](C)C[C@@H](C)[C@H](NC(=O)OC(C)(C)C(F)(F)F)C(=O)N3C2)c2ccccc12 [Compound 4052] | < 5.46 nM | < 5.46 nM | 
CCOc1cnc(O[C@@H]2C[C@H]3C(=O)N[C@]4(C(=O)NS(=O)(=O)C5(C)CC5)C[C@H]4/C=C\CC[C@@H](C)C[C@@H](C)[C@H](NC(=O)OC(C)(C)C)C(=O)N3C2)c2ccc(OC)cc12 [Compound 4136, tert-butyl (2R,6S,7R,9R,13aS,14aR,16aS,Z)-2-(4-ethoxy-6-methoxyisoquinolin-1-yloxy)-7,9-dimethyl-14a-(1-methylcyclopropylsulfonylcarbamoyl)-5,16-dioxo-1,2,3,5,6,7,8,9,10,11,13a,14,14a,15,16,16a-hexadecahydrocyclopropa[e]pyrrolo[1,2-a][1,4]diazacyclopentadecin-6-ylcarbamate] | < 5.46 nM | < 5.46 nM | 
CC(C)Oc1cc2ccccc2c(O[C@@H]2C[C@H]3C(=O)N[C@]4(C(=O)NS(=O)(=O)C5(CF)CC5)C[C@H]4/C=C\CC[C@@H](C)C[C@@H](C)[C@H](NC(=O)OC(C)(C)C)C(=O)N3C2)n1 [Compound 6110, tert-butyl ((2R,6S,7R,9R,13aS,14aR,16aS,Z)-14a-(((1-(fluoromethyl)cyclopropyl)sulfonyl)carbamoyl)-2-((3-isopropoxyisoquinolin-1-yl)oxy)-7,9-dimethyl-5,16-dioxo-1,2,3,5,6,7,8,9,10,11,13a,14,14a,15,16,16a-hexadecahydrocyclopropa[e]pyrrolo[1,2-a][1,4]diazacyclopentadecin-6-yl)carbamate] | 1.01 to 5 nM | 0.51 to 1 nM | 
CCCOc1cc2c(Cl)cccc2c(O[C@@H]2C[C@H]3C(=O)N[C@]4(C(=O)NS(=O)(=O)C5(C)CC5)C[C@H]4/C=C\CC[C@H](C)C[C@@H](C)[C@H](NC(=O)O[C@H](C)C(F)(F)F)C(=O)N3C2)n1 [Compound 1079, (R)-1,1,1-trifluoropropan-2-yl ((2R,6S,7R,9S,13aS,14aR,16aS,Z)-2-((5-chloro-3-propoxyisoquinolin-1-yl)oxy)-7,9-dimethyl-14a-(((1-methylcyclopropyl)sulfonyl)carbamoyl)-5,16-dioxo-1,2,3,5,6,7,8,9,10,11,13a,14,14a,15,16,16a-hexadecahydrocyclopropa[e]pyrrolo[1,2-a][1,4]diazacyclopentadecin-6-yl)carbamate] |  |  | EC50 [1, 5]: 4.82 to 103 nM; EC50 [2, 6]: < 5.46 nM
C[C@H]1CC/C=C\[C@@H]2C[C@@]2(C(=O)NS(=O)(=O)C2(CF)CC2)NC(=O)[C@@H]2C[C@@H](Oc3nc4c(c5ccccc35)OCCC4)CN2C(=O)[C@@H](NC(=O)OC(C)(C)C(C)(F)F)[C@H](C)C1 [Compound 6039, 3,3-difluoro-2-methylbutan-2-yl((2R,6S,7R,9S,13aS,14aR,16aS,Z)-2-((3,4-dihydro-2H-pyrano[3,2-c]isoquinolin-6-yl)oxy)-14a-(((1-(fluoromethyl)cyclopropyl)sulfonyl)carbamoyl)-7,9-dimethyl-5,16-dioxo-1,2,3,5,6,7,8,9,10,11,13a,14,14a,15,16,16a-hexadecahydrocyclopropa[e]pyrrolo[1,2-a][1,4]diazacyclopentadecin-6-yl)carbamate] |  |  | EC50 ([1]; HCV genotype 1a replicon luciferase): 5.01 to 35 nM; EC50 ([2]; HCV genotype 1b replicon luciferase): 5.01 to 35 nM
COc1ccc2c(O[C@@H]3C[C@H]4C(=O)N[C@]5(C(=O)NS(=O)(=O)C6CC6)C[C@H]5/C=C\CC[C@H](C)C[C@@H](C)[C@H](NC(=O)O[C@@H]5C[C@@H]6C[C@@H]6C5)C(=O)N4C3)nc(-c3ccc(OC(C)C)c(F)c3)cc2c1 [Compound 3069, (1R,3r,5S)-bicyclo[3.1.0]hexan-3-yl((2R,6S,7R,9S,13aS,14aR,16aS,Z)-14a-((cyclopropylsulfonyl)carbamoyl)-2-((3-(3-fluoro-4-isopropoxyphenyl)-6-methoxyisoquinolin-1-yl)oxy)-7,9-dimethyl-5,16-dioxo-1,2,3,5,6,7,8,9,10,11,13a,14,14a,15,16,16a-hexadecahydrocyclopropa[e]pyrrolo[1,2-a][1,4]diazacyclopentadecin-6-yl)carbamate] |  |  | EC50 [1, 5]: 4.82 to 103 nM; EC50 [2, 6]: < 5.46 nM
COc1cc2ccnc(O[C@@H]3C[C@H]4C(=O)N[C@]5(C(=O)NS(=O)(=O)C6(CF)CC6)C[C@H]5/C=C\CC[C@@H](C)C[C@@H](C)[C@H](NC(=O)OC(C)(C)C)C(=O)N4C3)c2cc1F [Compound 4159, tert-butyl (2R,6S,7R,9R,13aS,14aR,16aS,Z)-2-(7-fluoro-6-methoxyisoquinolin-1-yloxy)-14a-(1-(fluoromethyl)cyclopropylsulfonylcarbamoyl)-7,9-dimethyl-5,16-dioxo-1,2,3,5,6,7,8,9,10,11,13a,14,14a,15,16,16a-hexadecahydrocyclopropa[e]pyrrolo[1,2-a][1,4]diazacyclopentadecin-6-ylcarbamate] | < 5.46 nM | < 5.46 nM | 
COc1cnc(O[C@@H]2C[C@H]3C(=O)N[C@]4(C(=O)NS(=O)(=O)C5(CF)CC5)C[C@H]4/C=C\CC[C@@H](C)C[C@@H](C)[C@H](NC(=O)OC(C)(C)C(F)(F)F)C(=O)N3C2)c2cccc(Cl)c12 [Compound 4129] |  |  | EC50 ([1]; Hepatitis C virus, GETYPE1A, Huh-7, 72 h, HCV genotype 1a replicon luciferase): < 5.46 nM; EC50 ([2]; Hepatitis C virus, GETYPE1B, Huh-7, 72 h, HCV genotype 1b replicon luciferase): < 5.46 nM
CC(C)Oc1cnc(O[C@@H]2C[C@H]3C(=O)N[C@]4(C(=O)NS(=O)(=O)C5CC5)C[C@H]4/C=C\CC[C@@H](C)C[C@@H](C)[C@H](NC(=O)OC(C)(C)C(F)(F)F)C(=O)N3C2)c2ccccc12 [Compound 20, 1,1,1-trifluoro-2-methylpropan-2-yl((2R,6S,7R,9R,13aS,14aR,16aS,Z)-14a-((cyclopropylsulfonyl)carbamoyl)-2-((4-isopropoxyisoquinolin-1-yl)oxy)-7,9-dimethyl-5,16-dioxo-1,2,3,5,6,7,8,9,10,11,13a,14,14a,15,16,16a-hexadecahydrocyclopropa[e]pyrrolo[1,2-a][1,4]diazacyclopentadecin-6-yl)carbamate] |  |  | EC50 [1, 5]: < 5.46 nM; EC50 [2, 6]: < 5.46 nM
